In paper PMC10175918 (Communications Biology, 2023):
Where two headings read alike, the source gives them in different places.

Columns and labels:
Assay in all cases: TGFα-shedding assay-based GPCR screening with chimeric Gα subunit proteins
Assay type in all cases: cell-based
[1] = biological target: T1, 348 GPCRs (Homo sapiens, UniProt O00254); conditions: 10µM, Favipiravir 100μM
T1 construct: expressed in transfected cells; host or cells: HEK293A
T1 sequence (O00254 22-374): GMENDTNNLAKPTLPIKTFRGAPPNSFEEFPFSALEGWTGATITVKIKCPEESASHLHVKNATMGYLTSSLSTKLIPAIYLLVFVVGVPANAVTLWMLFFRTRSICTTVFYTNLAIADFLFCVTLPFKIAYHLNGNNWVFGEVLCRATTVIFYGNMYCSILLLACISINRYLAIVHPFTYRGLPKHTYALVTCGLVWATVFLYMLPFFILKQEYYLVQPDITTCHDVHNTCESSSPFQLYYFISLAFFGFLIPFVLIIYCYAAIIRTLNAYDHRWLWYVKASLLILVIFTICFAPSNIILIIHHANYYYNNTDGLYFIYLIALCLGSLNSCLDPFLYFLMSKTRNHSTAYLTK

[2] = biological target: T2, 348 GPCRs (Homo sapiens, UniProt P25089); conditions: 10µM, Favipiravir 100μM
T2 construct: expressed in transfected cells; host or cells: HEK293A
T2 sequence (P25089 1-353): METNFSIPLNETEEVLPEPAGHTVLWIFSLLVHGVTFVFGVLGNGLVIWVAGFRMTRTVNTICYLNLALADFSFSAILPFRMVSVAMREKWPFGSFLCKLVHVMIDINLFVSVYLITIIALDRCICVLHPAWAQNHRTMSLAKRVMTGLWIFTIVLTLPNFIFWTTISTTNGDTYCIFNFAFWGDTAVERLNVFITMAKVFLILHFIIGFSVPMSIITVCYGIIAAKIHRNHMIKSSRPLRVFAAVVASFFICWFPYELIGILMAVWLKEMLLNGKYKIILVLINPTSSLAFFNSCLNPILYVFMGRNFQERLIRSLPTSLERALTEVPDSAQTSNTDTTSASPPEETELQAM

[3] = biological target: T3, 348 GPCRs (Homo sapiens, UniProt P25024)
T3 construct: expressed in transfected cells; host or cells: HEK293A
T3 sequence (P25024 1-350): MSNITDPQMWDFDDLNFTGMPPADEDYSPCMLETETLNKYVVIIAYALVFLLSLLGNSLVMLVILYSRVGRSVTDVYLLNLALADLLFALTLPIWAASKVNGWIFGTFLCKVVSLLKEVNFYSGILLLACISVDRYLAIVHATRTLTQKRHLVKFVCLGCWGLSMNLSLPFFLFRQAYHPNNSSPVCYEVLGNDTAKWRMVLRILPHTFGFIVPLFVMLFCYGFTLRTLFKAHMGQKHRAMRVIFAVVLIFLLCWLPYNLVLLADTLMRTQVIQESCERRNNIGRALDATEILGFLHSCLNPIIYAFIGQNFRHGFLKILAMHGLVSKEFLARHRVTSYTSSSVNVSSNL

[4] = biological target: T4, 348 GPCRs (Homo sapiens, UniProt P47901)
T4 construct: expressed in transfected cells; host or cells: HEK293A
T4 sequence (P47901 1-424): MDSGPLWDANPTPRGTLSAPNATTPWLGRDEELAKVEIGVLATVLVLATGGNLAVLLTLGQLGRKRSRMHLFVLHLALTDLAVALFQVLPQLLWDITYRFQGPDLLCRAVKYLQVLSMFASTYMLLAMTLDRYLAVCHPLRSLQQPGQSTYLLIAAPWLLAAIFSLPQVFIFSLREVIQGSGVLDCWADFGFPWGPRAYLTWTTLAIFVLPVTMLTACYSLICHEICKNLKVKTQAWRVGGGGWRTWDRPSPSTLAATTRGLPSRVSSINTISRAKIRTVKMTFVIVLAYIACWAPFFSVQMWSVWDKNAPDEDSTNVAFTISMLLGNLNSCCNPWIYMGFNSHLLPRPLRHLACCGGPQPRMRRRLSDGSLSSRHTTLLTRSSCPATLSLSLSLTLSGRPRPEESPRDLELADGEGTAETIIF

[5] = biological target: T5, 348 GPCRs (Homo sapiens, UniProt O15552); conditions: 10µM, Favipiravir 100μM
T5 construct: expressed in transfected cells; host or cells: HEK293A
T5 sequence (O15552 1-330): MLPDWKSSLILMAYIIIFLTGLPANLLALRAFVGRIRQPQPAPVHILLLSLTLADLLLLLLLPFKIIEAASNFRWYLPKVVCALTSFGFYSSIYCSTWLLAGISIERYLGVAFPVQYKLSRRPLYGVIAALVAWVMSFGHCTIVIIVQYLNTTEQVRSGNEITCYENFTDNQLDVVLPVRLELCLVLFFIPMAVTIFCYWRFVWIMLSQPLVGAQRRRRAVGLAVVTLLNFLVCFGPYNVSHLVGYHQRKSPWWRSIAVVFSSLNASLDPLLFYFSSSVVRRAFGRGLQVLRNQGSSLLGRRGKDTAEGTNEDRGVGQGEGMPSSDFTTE

[6] = biological target: T6, 348 GPCRs (Homo sapiens, UniProt P51677); conditions: 10µM, Favipiravir 100μM
T6 construct: expressed in transfected cells; host or cells: HEK293A
T6 sequence (P51677 1-355): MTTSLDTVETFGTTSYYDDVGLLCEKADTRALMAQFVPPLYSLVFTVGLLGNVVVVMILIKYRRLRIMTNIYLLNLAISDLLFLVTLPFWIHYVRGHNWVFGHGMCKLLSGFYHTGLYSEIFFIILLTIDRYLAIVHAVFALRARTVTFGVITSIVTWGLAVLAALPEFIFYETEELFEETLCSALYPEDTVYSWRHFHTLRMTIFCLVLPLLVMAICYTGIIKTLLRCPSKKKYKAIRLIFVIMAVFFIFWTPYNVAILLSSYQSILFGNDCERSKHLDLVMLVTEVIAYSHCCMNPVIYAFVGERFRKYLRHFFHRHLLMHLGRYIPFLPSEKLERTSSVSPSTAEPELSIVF

[7] = F2RL2 (coagulation factor II (thrombin) receptor-like 2), read-out: % GPCR activation compared to TPA
[8] = FPR3 (formyl peptide receptor 3), read-out: % GPCR activation compared to TPA
[9] = GPCR CXCR1 (chemokine (C-X-C motif) receptor 1), read-out: % GPCR activation compared to TPA
[10] = GPCR V1B (arginine vasopressin receptor 1B), read-out: % GPCR activation compared to TPA
[11] = FFA2 (free fatty acid receptor 2), read-out: % GPCR activation compared to TPA
[12] = CCR3 (C-C motif chemokine receptor 3), read-out: % GPCR activation compared to TPA
[13] = read-out: % GPCR activation compared to TPA, F2RL2 (coagulation factor II (thrombin) receptor-like 2)
[14] = read-out: % GPCR activation compared to TPA, FPR3 (formyl peptide receptor 3)
[15] = read-out: % GPCR activation compared to TPA, GPCR CXCR1 (chemokine (C-X-C motif) receptor 1)
[16] = read-out: % GPCR activation compared to TPA, GPCR V1B (arginine vasopressin receptor 1B)
[17] = read-out: % GPCR activation compared to TPA, FFA2 (free fatty acid receptor 2)
[18] = read-out: % GPCR activation compared to TPA, CCR3 (C-C motif chemokine receptor 3)

Work on N#C[C@@]1(c2ccc3c(N)ncnn23)O[C@H](CO)[C@@H](O)[C@H]1O [GS441524] yielded an activation at 10 µM [1, 7] of -2.64%, an activation at 100 µM [2, 8] of 2.5% and an activation at 10 µM [3, 9] of -1.09%. It also gave an activation at 10 µM [4, 10] of 0.627%, an activation at 10 µM [5, 11] of -2.64% and an activation at 100 µM [6, 12] of 3.06%.
With CC(C)OC(=O)[C@H](C)N[P@](=O)(OC[C@H]1O[C@@H](n2ccc(=O)[nH]c2=O)[C@](C)(F)[C@@H]1O)Oc1ccccc1 [sofosbuvir] the activation at 10 µM [1, 13] was 1.05%, the activation at 100 µM [2, 14] was -0.773% and the activation at 10 µM [3, 15] was -0.0928%. For the same compound, the activation at 10 µM [4, 16] was -0.149%, the activation at 10 µM [5, 17] was 0.172% and the activation at 100 µM [6, 18] was -1.65%.
In the case of CCC(CC)COC(=O)[C@H](C)N[P@](=O)(OC[C@H]1O[C@@](C#N)(c2ccc3c(N)ncnn23)[C@H](O)[C@@H]1O)Oc1ccccc1 [remdesivir], the activation at 10 µM [1, 13] is reported as -1.15%, the activation at 100 µM [2, 14] is reported as 3.79% and the activation at 10 µM [3, 15] is reported as -0.838%. The activation at 10 µM [4, 16] was 1.47%, the activation at 10 µM [5, 17] was -1.72% and the activation at 100 µM [6, 18] was 7.61%.
CC(C)C(=O)OC[C@H]1O[C@@H](n2ccc(NO)nc2=O)[C@H](O)[C@@H]1O [molnupiravir] gave an activation at 10 µM [1, 7] of -1.18%, an activation at 100 µM [2, 8] of -1.95% and an activation at 10 µM [3, 9] of -2.06%. For the same compound, the activation at 10 µM [4, 10] was -0.66%, the activation at 10 µM [5, 11] was -4.09% and the activation at 100 µM [6, 12] was -0.741%.
NC(=O)c1nc(F)cnc1O [favipiravir, 6-fluoro-3-hydroxy-2-pyrazinecarboxamide] showed an activation at 10 µM [1, 7] of -0.958%, an activation at 100 µM [2, 8] of 0.4% and an activation at 100 µM ([3]; GPCR CXCR1 (chemokine (C-X-C motif) receptor 1), 100μM, read-out: % GPCR activation compared to TPA) of -1.26%. The activation at 100 µM ([4]; GPCR V1B (arginine vasopressin receptor 1B), 100μM, read-out: % GPCR activation compared to TPA) was 1.12%, the activation at 10 µM [5, 11] was -0.501% and the activation at 100 µM [6, 12] was 2.7%.
